According to patent publication US20210386762A1, “THE APPLICATION OF URSODEOXYCHOLIC ACID OR ITS PHARMACEUTICAL SALT IN THE PREPARATION OF AN ANTITUMOR DRUG AND AN ANTITUMOR DRUG” (ZHEJIANG UNIVERSITY, priority 2018, published 2021):

B1: SHR-1210: humanized anti-PD-1 antibody produced by Hengrui Medicine (antibody, chains of the INN, looked up, V domains shown)
VH: EVQLVESGGGLVQPGGSLRLSCAASGFTFSSYMMSWVRQAPGKGLEWVATISGGGANTYYPDSVKGRFTISRDNAKNSLYLQMNSLRAEDTAVYYCARQLYYFDYWGQGTTVTVSS
VL: DIQMTQSPSSLSASVGDRVTITCLASQTIGTWLTWYQQKPGKAPKLLIYTATSLADGVPSRFSGSGSGTDFTLTISSLQPEDFATYYCQQVYSIPWTFGGGTKVEIK

What was measured:
[1] = tested on: Treg cell differentiation (mouse naïve CD4+ T cells); assay: In vitro Treg cell differentiation of mouse naïve CD4+ T cells, flow cytometry; type: cell-based; conditions: 50 μM vs DMSO, anti-CD3/anti-CD28, flow cytometry on day 4 (FIG. 1)
Text: Treg cell surface can express CD4 and CD25 molecules. In addition, it is characterized by its high expression of transcription factor Foxp3. Based on the characteristic above, flow cytometry is adopted to explore the in vitro influence of ursodeoxycholic acid on Treg cell differentiation. Detailed procedures are as follows: T cell sorting: Mouse T cells were sorted by immunomagnetic beads methods. The mice were killed by cervical dislocation, spleens and lymph nodes were taken under aseptic conditions, ground and put through a sieve, centrifuged at 400 g for 5 min, and cells were resuspended with sort buffer. The total cells were counted with 3% glacial acetic acid, and proceeded strictly following the instructions of the sorting kit. CD4 negative selection kit (EasySep™ Mouse CD4+ T Cell Isolation Kit, #19852A) and Biotin sorting kit (EasySep™ Mouse Biotin Positive Selection Kit, #18556) were used in combination for sorting naïve CD4+ T cells (CD4-positive naïve T cells). […] After sorting, when the CD4+CD62L+ purity detected by flow cytometry is greater than 95%, cells were used for further experiments. […] DMSO or ursodeoxycholic acid U5127 (SIGMA-ALDRICH, #128-13-2) was added with a concentration of 50 μM respectively, and the differentiation of Treg cells were detected by flow cytometry on day 4. […]

melanoma cell line B16 [2] = assay: Melanoma tumor-bearing mouse model (C57BL/6); type: in vivo
Text: (§1) Female C57BL/6 (6-8 weeks old) mice were purchased from Shanghai SLAC Laboratory Animal Co., Ltd.; humanized PD-1 transgenic mice were purchased from Nanjing Biomedical Research Institute of Nanjing University; and all mice were raised in SPF facilities. Mouse colon cancer cell line MC38, lung cancer cell line LLC-luci and melanoma cell line B16 were all purchased from American Type Culture Collection (ATCC). Since Treg cells can inhibit extensive antitumor immune response while promoting angiogenesis in the tumor microenvironment, to explore the in vivo influence of ursodeoxycholic acid on Treg cells, tumor-bearing models are established using mouse colon cancer cell line MC38, lung cancer cell line LLC-luci and melanoma cell line B16, with female SPF-grade C57BL/6 as the experiment subject. For better internal absorption of ursodeoxycholic acid, the above-mentioned ursodeoxycholic acid is replaced with sodium ursodeoxycholate (SANTA CRUZ BIOTECHNOLOGY, #2898-95-5). The control group and the experimental group both received injection of ddH2O and URSO (30 mg/kg) every day, with tumor size observed and recorded. […] Two weeks later, separate the tumor-infiltrating lymphocytes for analysis by flow cytometry. […]

[3] = tested on: lung cancer cell line LLC-luci; assay: Lung cancer tumor-bearing mouse model (C57BL/6); type: in vivo
Text: as §1

[4] = tested on: colon cancer cell line MC38; assay: Colon cancer tumor-bearing mouse model (C57BL/6); type: in vivo
Text: as §1

[5] = tested on: Treg cell differentiation (human naïve CD4+ T cells); assay: In vitro Treg cell differentiation of human naïve CD4+ T cells, flow cytometry; type: cell-based; conditions: human naïve CD4+ T cells from healthy volunteers, CD3/CD28 activation, flow cytometry on day 4 (FIG. 8)
Experimental: To investigate the influence of ursodeoxycholic acid on humanized Treg cell differentiation, whole blood of volunteers were collected (ethics approval: approved by Medical Ethics Committee of Zhejiang University School of Medicine, Shen Lun No. 2019-013; five healthy volunteers, 10 ml peripheral venous blood each, collected by Zhejiang Medial & Health Group Hangzhou Hospital). naïve CD4+ T cells were sorted. Detailed procedures are as follows: 1. Separation of peripheral blood mononuclear cells: • (1) Fresh anticoagulant whole blood (EDTA, sodium citrate or heparin) was taken. Whole blood was diluted with isotonic solution (PBS or normal saline) of equal volume. • (2) A certain volume of separating medium (VESTA, #7111011) was added into a centrifuge tube, diluted blood sample was spread evenly on the surface of separating medium, and maintained a clear interface between two liquid surfaces. […] Sorting of human naïve CD4+ T cells: • (1) With Human naïve CD4+ T Cell Kit (STEMCELL, #19155) and the standard kit method adopted, naïve CD4+ T cells were sorted from human peripheral blood mononuclear cells, and plating was conducted according to the method in Example 1. • (2) Human T-Activator CD3/CD28 was added for T Cell Expansion and Activation (Gibco, #11161D). • (3) On day 4, Treg cell differentiation was detected by flow cytometry.

[6] = tested on: colon cancer cell line MC38; assay: Combination with anti-PD-1 antibody, colon cancer model in humanized PD-1 transgenic mice; type: in vivo, mouse; conditions: MC38 subcutaneous, SHR-1210 10 mg/kg every two days, URSO 30 mg/kg every other day, vs water and humanized IgG4 (FIG. 5)
Text: (§2) Female C57BL/6 (6-8 weeks old) mice were purchased from Shanghai SLAC Laboratory Animal Co., Ltd.; humanized PD-1 transgenic mice were purchased from Nanjing Biomedical Research Institute of Nanjing University; and all mice were raised in SPF facilities. Mouse colon cancer cell line MC38, lung cancer cell line LLC-luci and melanoma cell line B16 were all purchased from American Type Culture Collection (ATCC).
(§3) To verify whether the combined use of ursodeoxycholic acid and anti-PD-1 antibody can improve antitumor effect, colon cancer cell line MC38, melanoma cell line B16 and lung cancer cell line LLC are inoculated subcutaneously into humanized PD-1 transgenic mice, which were randomly divided into four groups when tumor volume reaches 100 mm^3. Treatment groups were treated with SHR-1210, URSO or SHR-1210 in combination with URSO, while the control groups were injected with water and humanized IgG4 (an isotype control for SHRR-1210). SHR-1210 was used every two days at a dosage of 10 mg/kg, while URSO was used every other day at 30 mg/kg, with the volume of tumor recorded each time.

[7] = tested on: lung cancer cell line LLC; assay: Combination with anti-PD-1 antibody, lung cancer model in humanized PD-1 transgenic mice; type: in vivo, mouse; conditions: LLC subcutaneous, SHR-1210 10 mg/kg every two days, URSO 30 mg/kg every other day, vs water and humanized IgG4 (FIG. 6)
Text: as §2, §3

melanoma cell line B16 [8] = assay: Combination with anti-PD-1 antibody, melanoma model in humanized PD-1 transgenic mice; type: in vivo, mouse; conditions: B16 subcutaneous, SHR-1210 10 mg/kg every two days, URSO 30 mg/kg every other day, vs water and humanized IgG4 (FIG. 7)
Text: as §2, §3

Molecule | proportion of endogenous Treg cells [1] | proportion of Treg cells in tumor infiltrating lymphocytes (melanoma cell line B16 [2]; two weeks of treatment, flow cytometry (FIG. 2B)) | proportion of Treg cells in tumor infiltrating lymphocytes ([3]; two weeks of treatment, flow cytometry (FIG. 3B)) | proportion of Treg cells in tumor infiltrating lymphocytes ([4]; two weeks of treatment, flow cytometry (FIG. 4B)) | differentiation of humanized endogenous Treg cells [5] | tumor volume (melanoma cell line B16 [2]; C57BL/6 mice, 30 mg/kg injection every day, vs ddH2O control (FIG. 2A)) | tumor volume ([3]; C57BL/6 mice, 30 mg/kg injection every day, vs ddH2O control (FIG. 3A)) | tumor volume ([4]; C57BL/6 mice, 30 mg/kg injection every day, vs ddH2O control (FIG. 4A)) | tumor growth (tumor volume) [6] | tumor growth (tumor volume) [7] | tumor growth (tumor volume) (melanoma cell line B16 [8])
C[C@H](CCC(=O)O)[C@H]1CC[C@H]2[C@@H]3[C@@H](O)C[C@@H]4C[C@H](O)CC[C@]4(C)[C@H]3CC[C@]12C [ursodeoxycholic acid] | significantly reduced | reduced | reduced | reduced | reduced |  |  |  |  |  | 
C[C@H](CCC(=O)[O-])[C@H]1CC[C@H]2[C@@H]3[C@@H](O)C[C@@H]4C[C@H](O)CC[C@]4(C)[C@H]3CC[C@]12C.[Na+] [URSO, sodium ursodeoxycholate] |  |  |  |  |  | obviously smaller in volume | obviously smaller in volume | obviously smaller in volume | significantly inhibited tumor growth | significantly inhibited tumor growth | significantly inhibited tumor growth
B1 |  |  |  |  |  |  |  |  | significantly inhibited tumor growth | significantly inhibited tumor growth | significantly inhibited tumor growth
